Measured values from publication PMC6600512, “Interactions between β-Lactoglobulin and 3,3′-Diindolylmethane in Model System” (Molecules, 2019).

Molecular target: T1, β-Lactoglobulin (β-LG) (Bos taurus, UniProt P02754)
T1 construct: gene LGB
T1 sequence (P02754 17-178): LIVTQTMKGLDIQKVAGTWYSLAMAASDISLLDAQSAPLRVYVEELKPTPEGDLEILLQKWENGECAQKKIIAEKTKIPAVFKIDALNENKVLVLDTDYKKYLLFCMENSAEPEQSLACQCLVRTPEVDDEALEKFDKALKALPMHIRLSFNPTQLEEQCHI
Assay: intrinsic fluorescence enhancement titration (binding constant from […]/ΔF vs […]/Cq); supported by CD, FT-IR, UV, DLS and zeta potential
Settings: read-out: intrinsic fluorescence enhancement titration (binding constant from 1/ΔF vs 1/Cq) (converted)

Kd: 1490 nM
SMILES: c1ccc2c(Cc3c[nH]c4ccccc34)c[nH]c2c1 [DIM, 3,3′-diindolylmethane]
